Results on nine molecules are retold here after ChEMBL document CHEMBL1127094, “Competitive NMDA receptor antagonists; (R)-4-Oxo-5-phosphononorvaline structure-activity relationships” (Bioorg Med Chem Lett, 1993).

The experiment deals with Glutamate NMDA receptor. Briefly: Tested for the binding potency against NMDA site of the glutamate receptor complex using rat brain cortical membranes in a competitive binding assay with [3H]CPP as radioligand. Type of experiment: cell membranes, Membrane.
A word on the IC50: it is the point on the concentration scale where inhibition reaches its midpoint. As to `N[C@H](C/C(CP(=O)(O)O)=N/OCc1ccccc1)C(=O)O`, the IC50 is 500 nM.
Molecule `CC(C(=O)CP(=O)(O)O)C(N)C(=O)O` (centres undefined) came in with a half-inhibitory concentration (IC50) of 7000 nM.
Then `N[C@H](CC(=O)CP(=O)(O)O)C(=O)O`, with 110 nM; and `CC(N)(CC(=O)CP(=O)(O)O)C(=O)O` (centres undefined), with 20000 nM; and `N[C@H](C/C(CP(=O)(O)O)=N/O)C(=O)O`, with 200 nM.
Consider `CC(C(=O)C[C@@H](N)C(=O)O)P(=O)(O)O` (some centres undefined), for which the IC50 was determined as 1800 nM.
In turn, `COP(=O)(O)CC(=O)CC(N)C(=O)O` (centres undefined) returned an IC50 of 5000 nM.
As to `COC(=O)[C@H](N)CC(=O)CP(=O)(O)O`, the half-maximal inhibitory concentration (IC50) came to 1700 nM.
As for `CO/N=C(/C[C@@H](N)C(=O)O)CP(=O)(O)O`, the 50% inhibitory concentration (IC50) was found to be 600 nM.
